# Test results reported in US20230085307A1, “PYRIDAZINONE COMPOUND AND HERBICIDE” (NISSAN CHEMICAL CORPORATION, priority 2019, published 2023).
# Legend:
# velvetleaf [1] = assay: Test Example 5: herbicidal effect by foliage application, plastic box (Table 20, symbol M); assay type: in vivo, velvetleaf (Abutilon theophrasti); settings: foliage application, 320 g/ha, 3 weeks after application
# Method in brief: (§1)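 Plants sown in sterilized diluvial soil and grown 14 days in a greenhouse at 25° C to 30° C, then sprayed on the foliage with the compound's emulsion diluted in water to a predetermined herbicide amount. Injury to weeds and crops scored three weeks after application on a visual rating scale.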
# wild oat [2] = assay: Test Example 5: herbicidal effect by foliage application, plastic box (Table 20, symbol I); assay type: in vivo, wild oat (Avena fatua); settings: foliage application, 320 g/ha, 3 weeks after application
# Method in brief: as §1
# lambsquarters [3] = assay: Test Example 5: herbicidal effect by foliage application, plastic box (Table 20, symbol O); assay type: in vivo, lambsquarters (Chenopodium album); settings: foliage application, 320 g/ha, 3 weeks after application
# Method in brief: as §1
# blackgrass [4] = assay: Test Example 5: herbicidal effect by foliage application, plastic box (Table 20, symbol J); assay type: in vivo, blackgrass (Alopecurus myosuroides); settings: foliage application, 320 g/ha, 3 weeks after application
# Method in brief: as §1
# green foxtail [5] = assay: Test Example 5: herbicidal effect by foliage application, plastic box (Table 20, symbol G); assay type: in vivo, green foxtail (Setaria viridis); settings: foliage application, 320 g/ha, 3 weeks after application
# Method in brief: as §1
# barnyard grass [6] = assay: Test Example 5: herbicidal effect by foliage application, plastic box (Table 20, symbol H); assay type: in vivo, barnyard grass (Echinochloa crus-galli); settings: foliage application, 320 g/ha, 3 weeks after application
# Method in brief: as §1
# green foxtail [7] = assay: Test Example 4: herbicidal effect by soil treatment (Table 19, symbol G); assay type: in vivo, green foxtail (Setaria viridis); settings: 320 g/ha
# Method in brief: (§2)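 Three weeks of greenhouse growth at 25° C. to 30° C. followed a uniform surface spray of water-diluted emulsion at a predetermined herbicide amount. Seeds had been sown beforehand under about 1.5 cm of sterilized diluvial soil. Grading followed criteria set out in an earlier test.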
# barnyard grass [8] = assay: Test Example 3: herbicidal effect by foliage application, Wagner pot (Table 18, symbol H); assay type: in vivo, barnyard grass (Echinochloa crus-galli); settings: 320 g/ha
# Method in brief: (§3)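 Plants were sown in alluvial soil held under 0.1–0.5 cm standing water and grown 14 days in a greenhouse at 25–30 °C. An emulsifiable formulation, water-diluted to the set dose, was then sprayed onto the foliage, and effects were scored three weeks later using previously defined criteria.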
# southern crabgrass [9] = assay: Test Example 5: herbicidal effect by foliage application, plastic box (Table 20, symbol F); assay type: in vivo, southern crabgrass (Digitaria ciliaris); settings: foliage application, 320 g/ha, 3 weeks after application
# Method in brief: as §1
# windgrass [10] = assay: Test Example 4: herbicidal effect by soil treatment (Table 19, symbol L); assay type: in vivo, windgrass (Apera spica-venti); settings: 320 g/ha
# Method in brief: as §2
# persian speedwell [11] = assay: Test Example 4: herbicidal effect by soil treatment (Table 19, symbol R); assay type: in vivo, Persian speedwell (Veronica persica); settings: 320 g/ha
# Method in brief: as §2
# Chinese sprangletop = assay: Test Example 3: herbicidal effect by foliage application, Wagner pot (Table 18, symbol D); assay type: in vivo, chinese sprangletop (Leptochloa chinensis); settings: 320 g/ha
# Method in brief: as §3
# Italian ryegrass [12] = assay: Test Example 5: herbicidal effect by foliage application, plastic box (Table 20, symbol K); assay type: in vivo, Italian ryegrass (Lolium multiflorum); settings: foliage application, 320 g/ha, 3 weeks after application
# Method in brief: as §1
# rice flat sedge = assay: Test Example 3: herbicidal effect by foliage application, Wagner pot (Table 18, symbol E); assay type: in vivo, rice flat sedge (Cyperus iria); settings: 320 g/ha
# Method in brief: as §3
# oval-leafed pondweed = assay: Test Example 1: herbicidal activity, application before weed generation under submerged conditions (Table 16, symbol C); assay type: in vivo, oval-leafed pondweed (Monochoria vaginalis); settings: 320 g/ha applied herbicide
# Method in brief: (§4)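 Emulsion formulation, water-diluted to set dose, was put onto the flooded surface (4 cm depth, alluvial soil) the same day weeds were sown and 2.5-leaf rice transplanted. After 3 weeks at 25-30 °C under glass, each species was rated 0 (≤5% kill) to 5 (≥90% kill).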
# barnyard grass [13] = assay: Test Example 4: herbicidal effect by soil treatment (Table 19, symbol H); assay type: in vivo, barnyard grass (Echinochloa crus-galli); settings: 320 g/ha
# Method in brief: as §2
# chickweed = assay: Test Example 4: herbicidal effect by soil treatment (Table 19, symbol P); assay type: in vivo, common chickweed (Stellaria media); settings: 320 g/ha
# Method in brief: as §2
# wild oat [14] = assay: Test Example 4: herbicidal effect by soil treatment (Table 19, symbol I); assay type: in vivo, wild oat (Avena fatua); settings: 320 g/ha
# Method in brief: as §2
# Italian ryegrass [15] = assay: Test Example 4: herbicidal effect by soil treatment (Table 19, symbol K); assay type: in vivo, Italian ryegrass (Lolium multiflorum); settings: 320 g/ha
# Method in brief: as §2
# velvetleaf [16] = assay: Test Example 4: herbicidal effect by soil treatment (Table 19, symbol M); assay type: in vivo, velvetleaf (Abutilon theophrasti); settings: 320 g/ha
# Method in brief: as §2
# blackgrass [17] = assay: Test Example 4: herbicidal effect by soil treatment (Table 19, symbol J); assay type: in vivo, blackgrass (Alopecurus myosuroides); settings: 320 g/ha
# Method in brief: as §2
# windgrass [18] = assay: Test Example 5: herbicidal effect by foliage application, plastic box (Table 20, symbol L); assay type: in vivo, windgrass (Apera spica-venti); settings: foliage application, 320 g/ha, 3 weeks after application
# Method in brief: as §1
# lambsquarters [19] = assay: Test Example 4: herbicidal effect by soil treatment (Table 19, symbol O); assay type: in vivo, lambsquarters (Chenopodium album); settings: 320 g/ha
# Method in brief: as §2
# redroot pigweed = assay: Test Example 4: herbicidal effect by soil treatment (Table 19, symbol N); assay type: in vivo, redroot pigweed (Amaranthus retroflexus); settings: 320 g/ha
# Method in brief: as §2
# Japanese bulrush = assay: Test Example 1: herbicidal activity, application before weed generation under submerged conditions (Table 16, symbol B); assay type: in vivo, Japanese bulrush (Schoenoplectus juncoides); settings: 320 g/ha applied herbicide
# Method in brief: as §4
# southern crabgrass [20] = assay: Test Example 4: herbicidal effect by soil treatment (Table 19, symbol F); assay type: in vivo, southern crabgrass (Digitaria ciliaris); settings: 320 g/ha
# Method in brief: as §2
# persian speedwell [21] = assay: Test Example 5: herbicidal effect by foliage application, plastic box (Table 20, symbol R); assay type: in vivo, Persian speedwell (Veronica persica); settings: foliage application, 320 g/ha, 3 weeks after application
# Method in brief: as §1
# late watergrass = assay: Test Example 1: herbicidal activity, application before weed generation under submerged conditions (Table 16, symbol A); assay type: in vivo, late watergrass (Echinochloa oryzicola); settings: 320 g/ha applied herbicide
# Method in brief: as §4
SMILES,effect on velvetleaf (M) (velvetleaf [1]),effect on wild oat (I) (wild oat [2]),effect on lambsquarters (O) (lambsquarters [3]),effect on blackgrass (J) (blackgrass [4]),effect on green foxtail (G) (green foxtail [5]),effect on barnyard grass (H) (barnyard grass [6]),"herbicidal effect rating, G: green foxtail (green foxtail [7])","herbicidal effect on H (barnyard grass), rating 0-5 (barnyard grass [8])",effect on southern crabgrass (F) (southern crabgrass [9]),"herbicidal effect rating, L: windgrass (windgrass [10])","herbicidal effect rating, R: persian speedwell (persian speedwell [11])","herbicidal effect on D (Chinese sprangletop), rating 0-5 (Chinese sprangletop)",effect on Italian ryegrass (K) (Italian ryegrass [12]),"herbicidal effect on E (rice flat sedge), rating 0-5 (rice flat sedge)",Herbicidal effect on C: oval-leafed pondweed (grade 0-5) (oval-leafed pondweed),"herbicidal effect rating, H: barnyard grass (barnyard grass [13])","herbicidal effect rating, P: chickweed (chickweed)","herbicidal effect rating, I: wild oat (wild oat [14])","herbicidal effect rating, K: Italian ryegrass (Italian ryegrass [15])","herbicidal effect rating, M: velvetleaf (velvetleaf [16])",other results
Cc1nn(C)c(=O)c(-c2c(-c3ccc(C(C)C)cc3)sc3ccc(F)cc23)c1O [2-014],5 (Herbicidal rate of 90% or more (almost completely withered)),2 (Herbicidal rate of 20% or more and less than 40%),5 (Herbicidal rate of 90% or more (almost completely withered)),4 (Herbicidal rate of 70% or more and less than 90%),5 (Herbicidal rate of 90% or more (almost completely withered)),5 (Herbicidal rate of 90% or more (almost completely withered)),2 (Herbicidal rate of 20% or more and less than 40%),5 (Herbicidal rate of 90% or more (almost completely withered)),5 (Herbicidal rate of 90% or more (almost completely withered)),3 (Herbicidal rate of 40% or more and less than 70%),5 (Herbicidal rate of 90% or more (almost completely withered)),5 (Herbicidal rate of 90% or more (almost completely withered)),5 (Herbicidal rate of 90% or more (almost completely withered)),5 (Herbicidal rate of 90% or more (almost completely withered)),0 (Herbicidal rate of 5% or less (almost no effect)),4 (Herbicidal rate of 70% or more and less than 90%),4 (Herbicidal rate of 70% or more and less than 90%),0 (Herbicidal rate of 5% or less (almost no effect)),4 (Herbicidal rate of 70% or more and less than 90%),3 (Herbicidal rate of 40% or more and less than 70%),"herbicidal effect rating, J: blackgrass (blackgrass [17]): 0 (Herbicidal rate of 5% or less (almost no effect)); effect on windgrass (L) (windgrass [18]): 5 (Herbicidal rate of 90% or more (almost completely withered)); herbicidal effect rating, O: lambsquarters (lambsquarters [19]): 5 (Herbicidal rate of 90% or more (almost completely withered)); herbicidal effect rating, N: redroot pigweed (redroot pigweed): 5 (Herbicidal rate of 90% or more (almost completely withered)); Herbicidal effect on B: Japanese bulrush (grade 0-5) (Japanese bulrush): 0 (Herbicidal rate of 5% or less (almost no effect)); herbicidal effect rating, F: southern crabgrass (southern crabgrass [20]): 0 (Herbicidal rate of 5% or less (almost no effect)); effect on persian speedwell (R) (persian speedwell [21]): 5 (Herbicidal rate of 90% or more (almost completely withered)); Herbicidal effect on A: late watergrass (grade 0-5) (late watergrass): 3 (Herbicidal rate of 40% or more and less than 70%)"
CCCCCCOc1ccc(-c2sc3ccc(F)cc3c2-c2c(OC(=O)CCC)c(C)nn(C)c2=O)cc1 [2-041],1 (Herbicidal rate of 5% or more and less than 20%),0 (Herbicidal rate of 5% or less (almost no effect)),3 (Herbicidal rate of 40% or more and less than 70%),0 (Herbicidal rate of 5% or less (almost no effect)),0 (Herbicidal rate of 5% or less (almost no effect)),0 (Herbicidal rate of 5% or less (almost no effect)),0 (Herbicidal rate of 5% or less (almost no effect)),3 (Herbicidal rate of 40% or more and less than 70%),0 (Herbicidal rate of 5% or less (almost no effect)),0 (Herbicidal rate of 5% or less (almost no effect)),0 (Herbicidal rate of 5% or less (almost no effect)),3 (Herbicidal rate of 40% or more and less than 70%),0 (Herbicidal rate of 5% or less (almost no effect)),1 (Herbicidal rate of 5% or more and less than 20%),0 (Herbicidal rate of 5% or less (almost no effect)),0 (Herbicidal rate of 5% or less (almost no effect)),0 (Herbicidal rate of 5% or less (almost no effect)),0 (Herbicidal rate of 5% or less (almost no effect)),0 (Herbicidal rate of 5% or less (almost no effect)),0 (Herbicidal rate of 5% or less (almost no effect)),"herbicidal effect rating, J: blackgrass (blackgrass [17]): 0 (Herbicidal rate of 5% or less (almost no effect)); effect on windgrass (L) (windgrass [18]): 0 (Herbicidal rate of 5% or less (almost no effect)); herbicidal effect rating, O: lambsquarters (lambsquarters [19]): 2 (Herbicidal rate of 20% or more and less than 40%); herbicidal effect rating, N: redroot pigweed (redroot pigweed): 0 (Herbicidal rate of 5% or less (almost no effect)); Herbicidal effect on B: Japanese bulrush (grade 0-5) (Japanese bulrush): 0 (Herbicidal rate of 5% or less (almost no effect)); herbicidal effect rating, F: southern crabgrass (southern crabgrass [20]): 0 (Herbicidal rate of 5% or less (almost no effect)); effect on persian speedwell (R) (persian speedwell [21]): 3 (Herbicidal rate of 40% or more and less than 70%); Herbicidal effect on A: late watergrass (grade 0-5) (late watergrass): 3 (Herbicidal rate of 40% or more and less than 70%)"
